We go through 2 compounds from patent publication US20260151316A1, “FIBRILLIN PRODUCTION PROMOTER, COSMETIC COMPOSITION OR SKIN TOPICAL AGENT, ORALLY ADMINISTERED AGENT, AND ELASTIN FIBER PRODUCTION PROMOTER” (YAMASA CORPORATION, priority 2022, published 2026).

Experiment [1] deals with fibrillin-1 production in normal human fibroblasts (NHDF). In words: Fibrillin-1 quantification by ELISA, direct treatment of normal human fibroblasts with sample. It counts as cell-based. The settings on record: Example 1, FIG. 1 versus FIG. 2 (direct treatment and K-CM). How it is done:
Normal human fibroblasts (NHDF; Kurabo) were seeded in a 96-well plate at a density of 2.55×10^4 cells/well/100 μL and cultured at 37° C. for 24 hours. The medium was then replaced with 100 μL of media (HuMedia-KG2; Kurabo) adjusted to contain 0, 2.5, 5 (mM) (i.e., 0, 0.0918, 0.184 (w/v %) ) of CMP, 2Na and 0, 2.5, 5 (MM) (i.e., 0, 0.092, 0.184 (w/v %) ) of UMP, 2Na, and cultured for 24 hours.
The culture supernatant from normal human fibroblasts was collected and an amount of fibrillin-1 was quantified by ELISA. The protein amount of the culture supernatant was also measured by BCA protein assay.
Background: ELISA stands for enzyme-linked immunosorbent assay.

The test system of experiment [2] is Fibrillin-1 (FBN-1) mRNA in normal human fibroblasts. In words: FBN-1 mRNA expression by real time PCR in fibroblasts treated with culture supernatant from three-dimensional cultured epidermis. It counts as cell-based. The settings on record: CMP, 2Na 1.0 and 2.0 (w/v %) applied to three-dimensional cultured epidermis; supernatant on NHDF; GAPDH as control. How it is done: The mRNA expression level of Fibrillin 1(FBN1 ), a factor related to elastin synthesis, was quantified by real-time PCR. Three-dimensional cultured epidermis (LabCyte EPI MODEL 24; manufactured by J TEC) was set in a 24-well plate to which 500 μL of the attached assay medium was added, and conditioned overnight at 37° C. 50 μL of sample-containing PBS (−) was applied from the stratum corneum side and cultured for 24 hours. After removing the sample-containing PBS (−), the plate was washed with PBS (−). The medium was replaced with a fresh medium, 50 μL of sample-containing PBS (−) was newly applied from the stratum corneum side, and further cultured for 48 hours. After culturing, the culture supernatant was collected. The concentrations of CMP, 2Na in the respective samples were 0, 1.0, and 2.0 (w/v %), respectively. Normal human fibroblasts were treated with the culture supernatant by the same method as that of Example 1. RNA was extracted from NHDF using RNeasy Mini Kit (QIAGEN), and mRNA expression analysis for Fibrillin-1 (FBN-1) was performed by real time PCR ([…]). Glyceraldehyde 3-phosphate dehydrogenase (GAPDH) was used as an endogenous control.

The test system of experiment [3] is elastin fibers in freshly extracted human skin. The experiment can be described thus: Ex vivo evaluation test using freshly extracted human skin, elastica-van Gieson staining of elastin fibers. The settings on record: abdominal skin, CMP, 2Na 1.0 and 2.0 (w/v %) applied from the stratum corneum side, 72 hours. How it is done:
Abdominal skin tissue was used, which was taken from a patient during cosmetic surgery, after obtaining informed consent for use in research. The extracted skin was placed in a culture plate supplemented with 1.3 ml of D-MEM/Ham's F-12 medium, and conditioned overnight at 37° C. in 5% CO2. An appropriate amount of PBS (−) containing a given concentration of each sample was applied from the stratum corneum side, and further cultured for 24 hours. The treatment was continued for a total of 72 hours while replacing the sample and medium with fresh ones every 24 hours. The concentrations of CMP, 2Na in the respective samples were 0, 1.0, and 2.0 (w/v %). After the cultured skin tissue was fixed according to a standard method, skin tissue sections were prepared, elastin fibers were stained with elastica-van Gieson stain, and observed under a microscope.

Take `O=c1ccn([C@@H]2O[C@H](COP(=O)(O)O)[C@@H](O)[C@H]2O)c(=O)[nH]1` [uridylic acid]: the “effect of promoting fibrillin production, cytidylic acid treatment compared with uridylic acid treatment” value in experiment [1] was “comparable”.
For the compound `Nc1ccn([C@@H]2O[C@H](COP(=O)(O)O)[C@@H](O)[C@H]2O)c(=O)n1` [cytidylic acid], the “effect of promoting fibrillin production, cytidylic acid treatment compared with uridylic acid treatment” value in experiment [1] was “comparable”. The “expression level of FBN-1 mRNA” value in experiment [2] is recorded as “increased, depending on the concentration”. Moreover, the “density of elastin fibers (elastica-van Gieson staining)” value in experiment [3] is “tended to result in denser elastin fibers”.
